Assay results from patent publication US20050282910A1, “Methods of application of chemical compounds having therapeutic activities in treating cancers” (priority 2003, published 2005).
Values after ≈ are worked out from the molar mass of the structure shown. Read-outs that look alike come from different tables or passages of the source.

How the values were obtained:
SMMC7721 = test: Enhancement of anticancer agent-induced apoptosis and necrosis, Anexin V-FITC/PI; assay type: cell-based, human; conditions: SMMC7721; vincristine 0.5 μg/ml, Schisandrin B 20 μg/ml; 48 hours
Method: To illustrate the activities of Schisandrin B or its analogs enhancing the apoptosis of cancer cells induced by an anticancer agent according to the present disclosure, human cancer cell line SMMC7721, a non-drug-resistant hepatic cancer cell line, and MCF7, a non-drug-resistant breast cancer cell line, were selected for use. Assays were carried out in triplicates against SMMC7721 or MCF7. […] Cells were collected and the apoptotic cells and necrotic cell percentages were determined using Anexin V-FITC/PI kit (Sigma, St. Louis, Mo., USA) according to manufacturer's instructions. Alternatively, the apoptotic and necrotic cell percentages were measured using DNA Plus kit (Becton-Dickinson, USA) according to the manufacturer's instructions.

KBv200 = test: Reversal of drug resistance by ethanol extracts of Schisandra chinensis fruit, MTT cytotoxicity of anticancer agents
[1] = test system: human epidermoid carcinoma MDR cell line KBv200; test: cells; conditions: KBv200, 72 h
[2] = test system: human epidermoid carcinoma MDR cell line KBv200
HL60/adr = test: Reversal of MRP1-mediated drug resistance, MTT cytotoxicity of anticancer agents; assay type: cell-based, human; conditions: for IC50: Homo sapiens, HL60/ADR, 72 h
Method: Assays were carried out in triplicate against MDR cancer cell HL60/adr. MTT assays as described previously (X.

[3] = test system: human breast cancer MDR cell line MCF7/adr
[4] = test system: human breast cancer MDR cell line MCF7/adr; test: cells; conditions: NCI/ADR-RES, 72 h
[5] = test system: human leukemia MDR cell line K562/adr; test: Reversal of P-glycoprotein-mediated drug resistance by Schisandrin A, Schisandrol A, Schisantherin A, MTT cytotoxicity of anticancer agents; assay type: cell-based; conditions: for IC50: Homo sapiens, K562/Adr, 72 h
Method: Assays were carried out in triplicate against human leukemia MDR cell line K562/adr, human breast cancer MDR cell line MCF7/adr, and human epidermoid carcinoma MDR cell line KBv200.

K562/adr = test: Reversal of drug resistance by ethanol extracts of Schisandra chinensis fruit, MTT cytotoxicity of anticancer agents; assay type: cell-based, human
Method: Assays were carried out in triplicate against human MDR cancer cell lines K562/adr, KBv200, and MCF7/adr. […] Alternatively, flow cytometry assays using FACS Calibur equipped with software Cellquest 3.1f (Becton-Dickinson, Holbrook, N.J.) were applied to count the cell numbers in each sample.

MCF7/adr = test: as above
P-glycoprotein = P-glycoprotein (Homo sapiens, UniProt P08183); test: Daunorubicin accumulation in MCF7/adr cells (P-glycoprotein-mediated drug efflux), flow cytometry; assay type: cell-based; conditions: 2 μg/ml daunorubicin; 0, 1, 10, 20, 40, and 80 μg/ml compound; 60 minutes; FIG. 5
Method: P-glycoprotein functions as a drug pump that unilaterally pumps the anticancer agents out of MDR cancer cells. Inhibition of P-glycoprotein results in an increase of the intracellular drug concentration within cancer cells. […] Cells were collected at 60 minutes after incubation.

MRP1 = target: T1, MRP1 (Homo sapiens, UniProt P33527); test: Daunorubicin accumulation in HL60/adr cells (MRP1-mediated drug efflux), flow cytometry; assay type: cell-based; conditions: 2 μg/ml daunorubicin; 60 minutes; FIG. 7
T1 construct: human cancer cell line HL60/adr, an MDR cell line characterized by MRP1 overexpression; endogenous in cells; host or cells: HL60/adr (human MDR cancer cell line)
Source text: MRP1 functions as a drug pump that unilaterally pumps the anticancer agents out of MDR cancer cells. Inhibition of MRP1 results in an increase of intracellular drug concentration within cancer cells.

[6] = read-out: IC50 (ng/ml) −Schisandrin A
[7] = read-out: IC50 (ng/ml) −Schisantherin A
[8] = anticancer agent in the presence of Schisandrin A (10 μg/ml), 72 hours
[9] = anticancer agent in the presence of Schisantherin A (10 μg/ml), 72 hours

T1 sequence (P33527 whole entry): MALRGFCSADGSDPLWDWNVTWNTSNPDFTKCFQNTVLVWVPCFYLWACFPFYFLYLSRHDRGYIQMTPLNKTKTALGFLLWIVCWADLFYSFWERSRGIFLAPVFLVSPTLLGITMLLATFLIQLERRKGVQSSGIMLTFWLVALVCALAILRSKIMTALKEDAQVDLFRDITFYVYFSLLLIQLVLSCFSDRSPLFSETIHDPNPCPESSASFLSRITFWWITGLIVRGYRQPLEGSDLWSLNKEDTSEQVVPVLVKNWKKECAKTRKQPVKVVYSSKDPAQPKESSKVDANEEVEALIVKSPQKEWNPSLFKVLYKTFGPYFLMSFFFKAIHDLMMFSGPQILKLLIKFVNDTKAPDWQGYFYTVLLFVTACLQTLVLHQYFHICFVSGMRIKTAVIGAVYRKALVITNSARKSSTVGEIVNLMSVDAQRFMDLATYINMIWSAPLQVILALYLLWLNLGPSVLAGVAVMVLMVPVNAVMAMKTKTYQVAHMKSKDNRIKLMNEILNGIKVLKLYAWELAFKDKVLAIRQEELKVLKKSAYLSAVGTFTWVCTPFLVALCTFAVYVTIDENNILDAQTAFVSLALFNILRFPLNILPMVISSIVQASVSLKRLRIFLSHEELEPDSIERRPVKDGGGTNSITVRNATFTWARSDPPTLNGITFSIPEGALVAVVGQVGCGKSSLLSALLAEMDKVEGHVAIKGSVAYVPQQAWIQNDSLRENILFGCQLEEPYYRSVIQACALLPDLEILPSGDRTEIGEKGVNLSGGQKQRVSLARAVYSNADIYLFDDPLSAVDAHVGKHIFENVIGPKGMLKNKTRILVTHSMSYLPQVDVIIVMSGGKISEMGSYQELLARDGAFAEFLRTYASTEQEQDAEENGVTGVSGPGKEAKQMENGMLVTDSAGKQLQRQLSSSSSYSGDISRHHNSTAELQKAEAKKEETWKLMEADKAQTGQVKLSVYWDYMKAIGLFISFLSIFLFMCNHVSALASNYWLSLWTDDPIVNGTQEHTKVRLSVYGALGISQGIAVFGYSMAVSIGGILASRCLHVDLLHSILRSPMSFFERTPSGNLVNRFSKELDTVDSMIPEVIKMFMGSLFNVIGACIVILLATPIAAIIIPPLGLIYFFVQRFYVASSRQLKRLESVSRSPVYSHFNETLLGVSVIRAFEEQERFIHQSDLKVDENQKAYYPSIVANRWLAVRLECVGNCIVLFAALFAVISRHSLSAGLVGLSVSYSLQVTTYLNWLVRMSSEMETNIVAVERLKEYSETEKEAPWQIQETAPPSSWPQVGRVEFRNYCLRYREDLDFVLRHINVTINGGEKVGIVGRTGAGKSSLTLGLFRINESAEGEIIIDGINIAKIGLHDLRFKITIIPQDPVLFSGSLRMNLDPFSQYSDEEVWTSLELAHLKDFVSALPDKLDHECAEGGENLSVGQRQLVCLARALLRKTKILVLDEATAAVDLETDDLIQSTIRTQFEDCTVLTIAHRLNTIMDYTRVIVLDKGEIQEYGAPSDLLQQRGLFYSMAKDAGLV
Chain of P-glycoprotein (P08183 whole entry): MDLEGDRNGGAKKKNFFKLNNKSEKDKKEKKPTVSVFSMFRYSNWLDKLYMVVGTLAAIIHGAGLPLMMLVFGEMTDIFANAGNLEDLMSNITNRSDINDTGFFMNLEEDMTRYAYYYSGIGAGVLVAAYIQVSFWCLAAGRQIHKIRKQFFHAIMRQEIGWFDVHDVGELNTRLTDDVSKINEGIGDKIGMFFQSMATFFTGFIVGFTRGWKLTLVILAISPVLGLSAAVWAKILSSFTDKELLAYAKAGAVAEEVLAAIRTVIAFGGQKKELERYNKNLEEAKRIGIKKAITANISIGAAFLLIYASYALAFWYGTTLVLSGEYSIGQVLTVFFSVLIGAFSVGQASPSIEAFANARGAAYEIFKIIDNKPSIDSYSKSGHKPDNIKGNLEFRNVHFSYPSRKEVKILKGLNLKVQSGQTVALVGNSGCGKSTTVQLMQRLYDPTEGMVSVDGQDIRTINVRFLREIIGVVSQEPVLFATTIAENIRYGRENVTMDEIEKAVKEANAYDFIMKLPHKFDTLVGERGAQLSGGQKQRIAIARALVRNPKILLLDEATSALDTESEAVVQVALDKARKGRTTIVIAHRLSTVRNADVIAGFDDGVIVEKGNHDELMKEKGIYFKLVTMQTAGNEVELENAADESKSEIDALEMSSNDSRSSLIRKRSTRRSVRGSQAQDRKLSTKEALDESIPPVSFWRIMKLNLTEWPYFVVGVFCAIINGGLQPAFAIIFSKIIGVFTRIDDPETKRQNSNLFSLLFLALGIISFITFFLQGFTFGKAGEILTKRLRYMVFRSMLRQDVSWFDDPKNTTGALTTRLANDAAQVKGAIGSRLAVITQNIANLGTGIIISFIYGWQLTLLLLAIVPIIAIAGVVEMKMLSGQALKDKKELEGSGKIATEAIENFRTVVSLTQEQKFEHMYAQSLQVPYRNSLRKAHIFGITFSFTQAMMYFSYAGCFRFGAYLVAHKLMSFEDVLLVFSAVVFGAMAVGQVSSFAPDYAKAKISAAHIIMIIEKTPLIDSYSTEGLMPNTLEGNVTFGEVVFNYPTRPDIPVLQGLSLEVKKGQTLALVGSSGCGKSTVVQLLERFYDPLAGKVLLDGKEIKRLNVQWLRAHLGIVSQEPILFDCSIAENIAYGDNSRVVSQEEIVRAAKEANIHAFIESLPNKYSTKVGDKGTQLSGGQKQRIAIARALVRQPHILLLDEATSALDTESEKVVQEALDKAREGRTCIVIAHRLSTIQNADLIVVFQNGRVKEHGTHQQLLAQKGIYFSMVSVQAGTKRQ

## CC[C@]1(O)C[C@H]2CN(CCc3c([nH]c4ccccc34)[C@@](C(=O)OC)(c3cc4c(cc3OC)N(C=O)[C@H]3[C@@](O)(C(=O)OC)[C@H](OC(C)=O)[C@]5(CC)C=CCN6CC[C@]43[C@@H]65)C2)C1 [Vincristine]
SMMC7721
  Apoptotic + necrotic (%): 6.1 ± 0.4%
KBv200; Homo sapiens, KBv200, 72 h, read-out: IC50 (ng/ml) −ethanol extract
  IC50: 42 ± 14 ng/mL
KBv200; KBv200, by ethanol extracts (50 μg/ml)
  RF (reversal folds of drug resistance): 13.5
[1]; [6]
  IC50: 22.5 ± 3.2 ng/mL (≈ 0.0273 µM)
[1]; [7]
  IC50: 22.5 ± 5.6 ng/mL (≈ 0.0273 µM)
[2]; [8]
  IC50 (ng/ml) +Schisandrin A: 2.95 ± 0.7 ng/mL
[2]; [9]
  IC50 (ng/ml) +Schisantherin A: 3.7 ± 0.9 ng/mL
[2]; by Schisandrin A (10 μg/ml)
  RF (reversal folds of drug resistance): 7.6
[2]; by Schisantherin A (10 μg/ml)
  RF (reversal folds of drug resistance): 6.1
HL60/adr; HL60/adr, anticancer agent in the presence of Schisandrin A (10 μg/ml), 72 hours
  IC50 (ng/ml) +Schisandrin A: 3.3 ± 0.9 ng/mL
HL60/adr; HL60/adr, anticancer agent in the presence of Schisandrin B (10 μg/ml), 72 hours
  IC50 (ng/ml) +Schisandrin B: <1 ng/mL
HL60/adr; HL60/adr, anticancer agent in the presence of Schisantherin A (10 μg/ml), 72 hours
  IC50 (ng/ml) +Schisantherin A: 3.9 ± 0.9 ng/mL
HL60/adr; HL60/adr, by Schisandrin A (10 μg/ml)
  RF (reversal folds of drug resistance): 27.0
HL60/adr; HL60/adr, by Schisandrin B (10 μg/ml)
  RF (reversal folds of drug resistance): >48
HL60/adr; HL60/adr, by Schisantherin A (10 μg/ml)
  RF (reversal folds of drug resistance): 22.8
HL60/adr; HL60/adr, vincristine in the presence of Schisandrin B 5 μg/ml, 72 hours
  IC50 (ng/ml) +Schisandrin B: 5 ± 1 ng/mL
HL60/adr; HL60/adr, vincristine in the presence of Schisandrin B 10 μg/ml, 72 hours
  IC50 (ng/ml) +Schisandrin B: 4 ± 2 ng/mL
HL60/adr; HL60/adr, vincristine in the presence of Schisandrin B 20 μg/ml, 72 hours
  IC50 (ng/ml) +Schisandrin B: <1 ng/mL
HL60/adr; HL60/adr, anticancer agent in the absence of Schisandrin A, 72 hours, read-out: IC50 (ng/ml) −Schisandrin A
  IC50: 89 ± 21 ng/mL
HL60/adr; HL60/adr, anticancer agent in the absence of Schisandrin B, 72 hours, read-out: IC50 (ng/ml) −Schisandrin B
  IC50: 48 ± 12 ng/mL
HL60/adr; HL60/adr, anticancer agent in the absence of Schisantherin A, 72 hours, read-out: IC50 (ng/ml) −Schisantherin A
  IC50: 89.1 ± 21 ng/mL
HL60/adr; HL60/adr, vincristine in the absence of Schisandrin B, 72 hours, read-out: IC50 (ng/ml) −Schisandrin B
  IC50: 42 ± 1 ng/mL
[3]; [8]
  IC50 (ng/ml) +Schisandrin A: 8.4 ± 2.3 ng/mL
[3]; [9]
  IC50 (ng/ml) +Schisantherin A: 24.1 ± 9.2 ng/mL
[3]; by Schisandrin A (10 μg/ml)
  RF (reversal folds of drug resistance): 59.6
[3]; by Schisantherin A (10 μg/ml)
  RF (reversal folds of drug resistance): 20.9
[4]; [6]
  IC50: 501 ± 129 ng/mL (≈ 0.607 µM)
[4]; [7]
  IC50: 501 ± 109 ng/mL (≈ 0.607 µM)
[5]; K562/adr, anticancer agent in the absence of Schisandrin A, 72 hours, read-out: IC50 (ng/ml) −Schisandrin A
  IC50: 612 ± 176 ng/mL
[5]; K562/adr, anticancer agent in the absence of Schisantherin A, 72 hours, read-out: IC50 (ng/ml) −Schisantherin A
  IC50: 612 ± 158 ng/mL
[5]; K562/adr, anticancer agent in the presence of Schisandrin A (10 μg/ml), 72 hours
  IC50 (ng/ml) +Schisandrin A: 7.3 ± 2.1 ng/mL
[5]; K562/adr, anticancer agent in the presence of Schisantherin A (10 μg/ml), 72 hours
  IC50 (ng/ml) +Schisantherin A: 7.7 ± 2.1 ng/mL
[5]; K562/adr, by Schisandrin A (10 μg/ml)
  RF (reversal folds of drug resistance): 83.8
[5]; K562/adr, by Schisantherin A (10 μg/ml)
  RF (reversal folds of drug resistance): 79.5
K562/adr; Homo sapiens, anticancer agent in the absence of ethanol extracts, 72 hours, read-out: IC50 (ng/ml) −ethanol extract
  IC50: 870 ± 230 ng/mL
K562/adr; anticancer agent in the presence of ethanol extracts (50 μg/ml), 72 hours
  IC50 (ng/ml) +ethanol extract: 110 ± 42 ng/mL
K562/adr; by ethanol extracts (50 μg/ml)
  RF (reversal folds of drug resistance): 7.9
MCF7/adr; Homo sapiens, NCI/ADR-RES, 72 h, read-out: IC50 (ng/ml) −ethanol extract
  IC50: 490 ± 112 ng/mL
MCF7/adr; MCF7/adr, anticancer agent in the presence of ethanol extracts (50 μg/ml), 72 hours
  IC50 (ng/ml) +ethanol extract: 210 ± 32 ng/mL
MCF7/adr; MCF7/adr, by ethanol extracts (50 μg/ml)
  RF (reversal folds of drug resistance): 2.3

## COc1cc2c(c(OC)c1OC)-c1c(cc3c(c1OC)OCO3)C[C@H](C)[C@](C)(O)[C@H]2OC(=O)c1ccccc1 [Schisantherin A]
P-glycoprotein
  accumulation of daunorubicin within MCF7/adr cells (in words): proportionately correlated with the increment of the concentration
HL60/adr; compound 10 μg/ml
  drug sensitivity of HL60/adr toward the anticancer agents (in words): enhanced
[5]; FIG. 3
  sensitivity of MDR cancer cell K562/adr to daunorubicin (in words): increase the sensitivity
MRP1
  daunorubicin accumulation within HL60/adr cells (in words): increased with the increasing concentration
